According to publication PMC2941766 (Molecular pharmaceutics, 2010):

What was measured:
Format in all cases: in vitro ADME
[1] = molecular target: T1, UGT2B7 (Homo sapiens, UniProt P16662); assay: Glucuronidation by expressed human UGT2B7; details: for glucuronidation rate: human, pH 7.4
T1 sequence (P16662 24-529): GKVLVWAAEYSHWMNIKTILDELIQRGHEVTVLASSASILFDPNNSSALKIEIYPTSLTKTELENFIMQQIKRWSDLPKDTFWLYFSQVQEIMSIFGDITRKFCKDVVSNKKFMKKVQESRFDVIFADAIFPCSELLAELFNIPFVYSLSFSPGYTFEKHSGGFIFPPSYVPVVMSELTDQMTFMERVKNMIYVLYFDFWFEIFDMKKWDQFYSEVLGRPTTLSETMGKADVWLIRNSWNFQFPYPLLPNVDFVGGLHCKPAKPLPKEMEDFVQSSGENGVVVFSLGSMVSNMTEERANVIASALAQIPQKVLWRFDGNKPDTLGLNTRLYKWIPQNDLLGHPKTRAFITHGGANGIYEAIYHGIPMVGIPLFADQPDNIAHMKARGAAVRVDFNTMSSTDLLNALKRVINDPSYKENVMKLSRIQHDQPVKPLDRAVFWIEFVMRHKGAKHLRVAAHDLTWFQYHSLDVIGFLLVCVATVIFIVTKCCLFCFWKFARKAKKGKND

[2] = Glucuronidation by pooled human liver microsomes; details: human, 2.5 μM, pH 7.4
[3] = molecular target: T2, UGT1A7 (Homo sapiens, UniProt Q9HAW7); assay: Glucuronidation by expressed human UGT1A7; details: human, 2.5 μM, pH 7.4
T2 sequence (Q9HAW7 26-530): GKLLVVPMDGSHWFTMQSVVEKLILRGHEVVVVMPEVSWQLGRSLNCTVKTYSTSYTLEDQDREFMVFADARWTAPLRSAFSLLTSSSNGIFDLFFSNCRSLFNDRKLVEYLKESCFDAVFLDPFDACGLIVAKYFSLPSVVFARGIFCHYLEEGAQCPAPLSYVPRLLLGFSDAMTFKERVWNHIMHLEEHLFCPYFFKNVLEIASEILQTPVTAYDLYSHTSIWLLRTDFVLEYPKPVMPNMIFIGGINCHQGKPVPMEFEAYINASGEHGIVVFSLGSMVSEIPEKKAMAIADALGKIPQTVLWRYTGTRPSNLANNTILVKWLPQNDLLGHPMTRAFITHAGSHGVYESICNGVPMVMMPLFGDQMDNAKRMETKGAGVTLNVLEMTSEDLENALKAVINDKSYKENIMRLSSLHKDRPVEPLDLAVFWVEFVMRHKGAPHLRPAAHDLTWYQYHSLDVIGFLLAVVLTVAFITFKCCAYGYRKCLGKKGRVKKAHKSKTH

[4] = molecular target: T3, UGT1A8 (Homo sapiens, UniProt Q9HAW9); assay: Glucuronidation by expressed human UGT1A8; details: human, 2.5 μM, pH 7.4
T3 sequence (Q9HAW9 26-530): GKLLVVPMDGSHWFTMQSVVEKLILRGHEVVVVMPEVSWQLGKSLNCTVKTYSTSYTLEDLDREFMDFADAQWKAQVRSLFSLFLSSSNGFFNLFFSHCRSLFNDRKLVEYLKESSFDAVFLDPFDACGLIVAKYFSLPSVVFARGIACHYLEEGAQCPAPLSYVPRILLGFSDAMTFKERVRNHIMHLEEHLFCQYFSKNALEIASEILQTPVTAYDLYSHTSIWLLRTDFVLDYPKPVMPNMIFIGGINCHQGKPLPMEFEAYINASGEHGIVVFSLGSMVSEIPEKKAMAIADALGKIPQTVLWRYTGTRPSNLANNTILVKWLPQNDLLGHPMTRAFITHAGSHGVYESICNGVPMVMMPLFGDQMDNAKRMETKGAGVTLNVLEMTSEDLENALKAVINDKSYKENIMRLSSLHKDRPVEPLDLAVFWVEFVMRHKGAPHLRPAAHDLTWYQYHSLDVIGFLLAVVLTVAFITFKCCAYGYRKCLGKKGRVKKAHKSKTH

[5] = molecular target: T4, UGT1A9 (Homo sapiens, UniProt O60656); assay: Glucuronidation by expressed human UGT1A9; details: human, 2.5 μM, pH 7.4
T4 sequence (O60656 26-530): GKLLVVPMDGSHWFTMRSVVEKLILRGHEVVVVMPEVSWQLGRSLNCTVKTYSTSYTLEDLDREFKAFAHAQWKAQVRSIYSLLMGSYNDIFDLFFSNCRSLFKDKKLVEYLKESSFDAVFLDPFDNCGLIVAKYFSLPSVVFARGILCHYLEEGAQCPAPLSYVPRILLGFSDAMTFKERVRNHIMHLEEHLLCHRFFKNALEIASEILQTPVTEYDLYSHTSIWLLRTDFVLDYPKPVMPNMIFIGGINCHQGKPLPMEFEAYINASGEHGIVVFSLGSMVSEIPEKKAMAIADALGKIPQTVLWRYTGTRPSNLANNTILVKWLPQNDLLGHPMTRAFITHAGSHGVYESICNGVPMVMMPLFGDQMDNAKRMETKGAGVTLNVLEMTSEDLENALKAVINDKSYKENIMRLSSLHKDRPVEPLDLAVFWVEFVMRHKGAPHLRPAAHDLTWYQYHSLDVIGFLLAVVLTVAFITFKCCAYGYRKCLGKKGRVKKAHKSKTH

[6] = molecular target: T5, UGT1A1 (Homo sapiens, UniProt P22309); assay: Glucuronidation by expressed human UGT1A1; details: human, pH 7.4
T5 sequence (P22309 26-533): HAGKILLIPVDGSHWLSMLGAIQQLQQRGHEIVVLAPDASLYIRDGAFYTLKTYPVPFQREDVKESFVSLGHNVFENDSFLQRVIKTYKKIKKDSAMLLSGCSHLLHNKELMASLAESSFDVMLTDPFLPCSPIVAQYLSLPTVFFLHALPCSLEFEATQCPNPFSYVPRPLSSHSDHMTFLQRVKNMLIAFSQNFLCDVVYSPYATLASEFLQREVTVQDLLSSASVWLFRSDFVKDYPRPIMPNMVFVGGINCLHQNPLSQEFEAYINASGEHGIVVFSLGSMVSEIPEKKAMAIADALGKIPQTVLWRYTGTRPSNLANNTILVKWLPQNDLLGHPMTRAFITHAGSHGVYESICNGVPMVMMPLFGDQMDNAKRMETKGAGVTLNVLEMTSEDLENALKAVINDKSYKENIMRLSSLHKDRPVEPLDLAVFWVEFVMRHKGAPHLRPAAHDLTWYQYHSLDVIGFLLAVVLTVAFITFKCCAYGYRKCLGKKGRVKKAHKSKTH

[7] = Glucuronidation by pooled human intestinal microsomes; details: human, 2.5 μM, pH 7.4
[8] = molecular target: T6, UGT1A10 (Homo sapiens, UniProt Q9HAW8); assay: Glucuronidation by expressed human UGT1A10; details: human, 10 μM, pH 7.4
T6 sequence (Q9HAW8 26-530): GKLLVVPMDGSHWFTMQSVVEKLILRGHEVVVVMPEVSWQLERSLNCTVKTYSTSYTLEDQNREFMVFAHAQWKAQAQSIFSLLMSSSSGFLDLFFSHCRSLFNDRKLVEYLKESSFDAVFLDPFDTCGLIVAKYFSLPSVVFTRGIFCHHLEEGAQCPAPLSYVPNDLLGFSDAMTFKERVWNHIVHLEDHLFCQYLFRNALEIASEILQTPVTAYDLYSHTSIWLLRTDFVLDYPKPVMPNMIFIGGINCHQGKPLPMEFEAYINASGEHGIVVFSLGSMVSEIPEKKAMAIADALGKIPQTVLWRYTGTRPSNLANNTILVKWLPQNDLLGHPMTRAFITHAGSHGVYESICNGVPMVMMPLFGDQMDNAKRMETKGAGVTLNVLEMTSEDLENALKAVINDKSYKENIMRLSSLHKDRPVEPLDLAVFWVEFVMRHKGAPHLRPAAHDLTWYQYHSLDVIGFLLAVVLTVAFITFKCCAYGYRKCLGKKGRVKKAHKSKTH

- substrate of UGT2B7 [1]: substrates
- glucuronidation rate ([1]; 2.5 μM): 0.20±0.01 nmol per min per mg of protein
- glucuronidation rate ([1]; 10 μM): 0.40±0.02 nmol per min per mg of protein
- glucuronidation rate ([1]; 35 μM): 0.11±0.00 nmol per min per mg of protein
- glucuronidation rate [2]: 0.00±0.00 nmol per min per mg of protein
- glucuronidation rate [3]: 0 nmol per min per mg of protein
- glucuronidation rate [4]: 0.28±0.04 nmol per min per mg of protein
- glucuronidation rate [5]: 0.29±0.01 nmol per min per mg of protein
- glucuronidation rate ([6]; 2.5 μM): 0.28±0.00 nmol per min per mg of protein
- glucuronidation rate ([6]; 10 μM): 0.28±0.01 nmol per min per mg of protein
- glucuronidation rate [7]: 0.49±0.06 nmol per min per mg of protein
- glucuronidation rate [8]: 0.12±0.01 nmol per min per mg of protein
Compound: O=c1cc(-c2ccccc2)oc2cccc(O)c12 [5-HF, 5-hydroxyflavone]
- glucuronidation rate ([6]; 35 μM): 0.308±0.02 nmol per min per mg of protein
